How the values were obtained:
[1] = biological target: T1, C5aR (Mus musculus, UniProt P30993); test: Allogenic kidney transplantation model (ischemia reperfusion injury); format: in vivo, mice
T1 construct: from tissue; host or cells: live mice (kidney allograft recipients, in vivo)
T1 sequence (P30993 1-351): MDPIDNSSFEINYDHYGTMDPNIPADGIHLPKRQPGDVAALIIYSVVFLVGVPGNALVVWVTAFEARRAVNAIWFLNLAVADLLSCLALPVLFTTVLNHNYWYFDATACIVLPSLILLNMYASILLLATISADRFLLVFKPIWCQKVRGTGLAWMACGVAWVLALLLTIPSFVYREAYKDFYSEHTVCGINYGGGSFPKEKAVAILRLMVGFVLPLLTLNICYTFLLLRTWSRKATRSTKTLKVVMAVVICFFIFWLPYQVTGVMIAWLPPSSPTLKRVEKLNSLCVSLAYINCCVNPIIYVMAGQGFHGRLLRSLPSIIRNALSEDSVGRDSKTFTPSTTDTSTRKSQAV
Description: (Arumugam, T. V., Shiels I. A., Strachan, A. J., et al (2003) A small molecule C5a receptor antagonist protects kidneys from ischemia/reperfusion injury in rats. Kidney Int 63; 134-142, De Vries B, Matthijsen R A, Wolfs T G et al (2003a) Inhibition of complement factor C5 protects against renal ischemia-reperfusion injury: inhibition of late apoptosis and inflammation Transplantation 75; 375-382, De Vries B, Kohl J, Leclercq W K et al (2003b) Complement factor C5a mediates renal ischemia-reperfusion injury independent of neutrophils. J Immunol 170; 3883-3889.) JPE1375 liquid formulation is active in an allogenic transplantation model in mice. In this model rejection of the transplant is based on an ischemia reperfusion injury with measures of animal/graft survival and renal function. Blockade of C5aR with JPE1375 liquid formulation after transplantation prolonged survival of the animals from days to greater than 12 weeks compared to controls. C5aR blockade with JPE1375 microparticle sustained release formulation is expected to provide similar benefit after a single dose.

[2] = biological target: T2, C5a receptor (Mus musculus, UniProt P30993); test: Reverse Passive Arthus Reaction model, immune complex peritonitis; format: in vivo, mice; settings: intraperitoneal injection of 1 mg/kg as a liquid formulation
T2 construct: from tissue; host or cells: live mice (peritoneal neutrophil chemotaxis, in vivo)
T2 sequence (P30993 1-351): T1 sequence (P30993 1-351)
Description: C5a is a potent chemokine, inducing polymorphic nucleated granulocyte (neutrophils) and monocyte/macrophage chemotaxis. In the Reverse Passive Arthus Reaction model in mice, an immune complex peritonitis is induced by the intravenous administration of ovalbumin followed by intraperitoneal administration of an anti-ovalbumin antiserum, which leads to the formation of antigen-antibody complexes and subsequent activation of the complement system, including generation of C5a [Heller et al., 1999]. (Heller et al (1999) J Immunol 163; 985-994).

Substance: Hoo-Phe-Orn-Pro-hle-Pff-Phe-NH2 [JPE1375]
- survival of the animals ([1]; after transplantation, prolonged from days, compared to controls): greater than 12 weeks
- activity in allogenic transplantation model ([1]; liquid formulation): active
- inhibition of C5a receptor mediated chemotaxis [2]: high in vivo potency

From patent US20120244192A1, “SUSTAINED RELEASE FORMULATIONS OF PEPTIDOMIMETIC DRUGS AND USES THEREOF” (priority 2009, published 2012)
